pEC50: −log10 of the molar value.
Test system: HIV-1 LAI
Experiment: microbe, parasite or virus in culture
Conditions: for Combination Indices at % HIV Inhibition (Confidence Interval) 50% / Combination Indices at % HIV Inhibition (Confidence Interval) 75% / Combination Indices at % HIV Inhibition (Confidence Interval) 90% / Overall Result (combined anti-HIV effect): Compound 1 + named drug; for Combination Indices at % HIV Inhibition (Confidence Interval) 50% / Combination Indices at % HIV Inhibition (Confidence Interval) 75% / Combination Indices at % HIV Inhibition (Confidence Interval) 90%: 95% confidence interval in parentheses; for Overall Result (combined anti-HIV effect): all ratios, MT-2 cells, HIV-1 LAI
Method: Virus and cell lines. The T-cell lines, MT-2 and PM-1 were obtained through the AIDS Research and Reference Reagent Program, NIAID, and were contributed by Dr. D. Richman and Dr. R. Gallo, respectively. Both cell lines were cultured in RPMI 1640 medium supplemented with 10% fetal bovine serum, 2 mM L-glutamine and sub-cultured twice a week. The LAI strain of HIV-1 was obtained from the Fred Hutchinson Cancer Research Center, and the Bal strain was from NIH. Both virus stocks were amplified and titered in MT-2 cells (LAI) and PM-1 cells (Bal) using a virus infectivity assay.
Drug Susceptibility and Cytotoxicity Assays. For drug susceptibility assays, MT-2 cells were infected with HIV-1 LAI (or PM-1 cells with HIV-1 Bal) at an MOI of 0.005, and seeded into 96-well microtiter plates (0.1×10^6 cells/ml) containing serial dilutions of test compounds. […] Each drug ratio consisted of an array of 3-fold serial dilutions, and was performed in quadruplicate. The plates were incubated at 37° C./5% CO2. The MT-2 cells infected with HIV-1 LAI were incubated for 5 days. On day-five post-infection, 20 μl from each well was harvested and quantitated by a reverse transcriptase (RT) assay, or in samples involving non-nucleoside RT inhibitors, an MTS assay. The PM-1 cells infected with HIV-1 Bal and used for studying the combinations with CCR5 inhibitors were incubated for six days. On day-six post-infection, 20 μl from each well was harvested, 20- and 50-fold diluted and quantitated by p24 assay. Cytotoxicity assays were performed using uninfected cells, exposed to the same drug combinations, and incubated for six days. Cell viability was determined by an MTS assay. The CC50 values were calculated by using the exponential form of the median effect equation as mentioned below for calculation of EC50.
Analysis of Drug Combination Effects. For determination of CI values, drugs were diluted in a fixed ratio and multiple ratios were analyzed. The drug serial dilutions spanned a range of concentrations near the EC50 value of each compound, so that equivalent antiviral activities could be compared. Concentration-response curves were estimated for each individual drug and every combination using the median-effect equation. The equation was fit using a nonlinear regression routine (Proc Nlin) in PC SAS version 8.01 (SAS Institute Inc., SAS Version 8.01, Cary, N.C.: SAS Institute Inc., 1990).
In this equation, Fa stands for “fraction affected,” and represents the fraction of the viral load that has been inactivated. […] ED50 is drug concentration that is expected to reduce the amount of virus by 50%, and m is a parameter that reflects the slope of the concentration-response curve.
To assess antiviral effects of different drug combination treatments, combination indices (CIs) were calculated according to Chou and Rideout. The combination index was computed as CI=[D]1/[Dm]1+[D]2/[Dm]2
In this equation [Dm]1 and [Dm]2 are the concentrations of drugs that would individually produce a specific level of effect, while [D]1 and [D]2 are the concentrations of drugs in combination that would produce the same level of effect.
Theoretically, additivity is implied if the CI is equal to one, synergy if the CI is less than one, and antagonism if the CI is greater than one. […] At best, we can construct a range that contains the likely values for the CI, given the noise in the data. In this report, these ranges are reported in parentheses next to each point estimate of the CI. […] If the range fell entirely above 1.0, we would infer antagonistic behavior. If the range were to include 1.0, we would infer additivity.
In carrying out the combination experiments below, the EC50 for Compound 1 and each comparator compound was determined during the course of each study, and used in the subsequent data analysis.

[1] = EC50 ratio 1:1 (Compound 1:comparator)
[2] = EC50 ratio 1:2.5 (Compound 1:comparator)
[3] = EC50 ratio 2.5:1 (Compound 1:comparator)
[4] = Human immunodeficiency virus 1, MT2, 120 h

Row | Compound | Combination Indices at % HIV Inhibition (Confidence Interval) 50% [1] | Combination Indices at % HIV Inhibition (Confidence Interval) 75% [1] | Combination Indices at % HIV Inhibition (Confidence Interval) 90% [1] | Combination Indices at % HIV Inhibition (Confidence Interval) 50% [2] | Combination Indices at % HIV Inhibition (Confidence Interval) 75% [2] | Combination Indices at % HIV Inhibition (Confidence Interval) 90% [2] | Combination Indices at % HIV Inhibition (Confidence Interval) 50% [3] | Combination Indices at % HIV Inhibition (Confidence Interval) 75% [3] | Combination Indices at % HIV Inhibition (Confidence Interval) 90% [3] | Overall Result (combined anti-HIV effect) | pEC50 [4] | pEC50 (LAI)
1 | CC(C)(C)NC(=O)[C@@H]1CN(Cc2cccnc2)CCN1C[C@@H](O)C[C@@H](Cc1ccccc1)C(=O)N[C@H]1c2ccccc2C[C@H]1O [Indinavir, indinavir] | 0.41 (0.26, 0.56) | 0.69 (0.34, 1.04) | 1.59 (0.29, 2.90) | 0.30 (0.18, 0.41) | 0.62 (0.32, 0.92) | 1.96 (0.29, 3.64) | 0.05 (0.03, 0.06) | 0.16 (0.13, 0.20) | 0.68 (0.39, 0.98) | Additive- | 8.52 | –
2 | Nc1nc(NC2CC2)c2ncn([C@H]3C=C[C@@H](CO)C3)c2n1 [Abacavir, abacavir] | 0.69 (0.49, 0.89) | 0.77 (0.46, 1.09) | 0.87 (0.30, 1.44) | 0.56 (0.45, 0.67) | – | 0.48 (0.27, 0.68) | 0.10 (0.05, 0.14) | 0.27 (0.16, 0.39) | – | Additive- | 6.49 | –
3 | Nc1ccn([C@@H]2CS[C@H](CO)O2)c(=O)n1 [Lamivudine, lamivudine] | 0.75 (0.45, 1.05) | 0.79 (0.35, 1.23) | 0.90 (0.11, 1.69) | 0.13 (0.10, 0.16) | 0.21 (0.16, 0.27) | 0.39 (0.21, 0.58) | 0.14 (0.10, 0.17) | 0.26 (0.18, 0.33) | 0.49 (0.22, 0.75) | – | – | –
4 | CC(C)c1nc(CN(C)C(=O)N[C@H](C(=O)N[C@@H](Cc2ccccc2)C[C@H](O)[C@H](Cc2ccccc2)NC(=O)OCc2cncs2)C(C)C)cs1 [Ritonavir, ritonavir] | 0.60 (0.49, 0.72) | 0.61 (0.45, 0.77) | 0.70 (0.41, 0.99) | 0.54 (0.45, 0.63) | 0.58 (0.44, 0.71) | 0.73 (0.46, 1.00) | 0.23 (0.20, 0.26) | 0.20 (0.17, 0.24) | 0.19 (0.14, 0.24) | Synergistic | 8.15 | –
5 | Cc1cn([C@H]2C[C@H](N=[N+]=[N-])[C@@H](CO)O2)c(=O)[nH]c1=O [Zidovudine, zidovudine] | 0.25 (0.17, 0.34) | 0.53 (0.29, 0.78) | 1.13 (0.24, 2.02) | 0.46 (0.36, 0.56) | 0.52 (0.36, 0.68) | 0.59 (0.29, 0.89) | 0.37 (0.28, 0.47) | 0.49 (0.32, 0.67) | 0.66 (0.28, 1.05) | Additive- | 9.00 | –
6 | Cc1c(O)cccc1C(=O)N[C@@H](CSc1ccccc1)[C@H](O)CN1C[C@H]2CCCC[C@H]2C[C@H]1C(=O)NC(C)(C)C [Nelfinavir, nelfinavir] | 0.39 (0.34, 0.44) | 0.47 (0.39, 0.56) | 0.58 (0.41, 0.74) | 0.41 (0.32, 0.50) | 0.81 (0.57, 1.05) | 1.61 (0.84, 2.37) | 0.12 (0.09, 0.15) | 0.32 (0.22, 0.42) | 0.87 (0.38, 1.35) | Additive- | 8.52 | –
7 | CC(C)(C)NC(=O)[C@@H]1C[C@@H]2CCCC[C@@H]2CN1C[C@@H](O)[C@H](Cc1ccccc1)NC(=O)[C@H](CC(N)=O)NC(=O)c1ccc2ccccc2n1 [Saquinavir, saquinavir] | 0.31 (0.28, 0.33) | 0.31 (0.28, 0.35) | 0.32 (0.26, 0.38) | 0.60 (0.52, 0.67) | 0.67 (0.56, 0.79) | 0.77 (0.56, 0.97) | 0.39 (0.33, 0.45) | 0.59 (0.46, 0.72) | 0.90 (0.58, 1.22) | Synergistic | 8.30 | –
8 | O=c1[nH]cnc2c1ncn2[C@H]1CC[C@@H](CO)O1 [Didanosine, didanosine] | 0.31 (0.29, 0.32) | 0.16 (0.15, 0.17) | 0.08 (0.08, 0.09) | 0.27 (0.23, 0.31) | 0.31 (0.24, 0.38) | 0.35 (0.23, 0.48) | 0.15 (0.11, 0.19) | 0.31 (0.22, 0.40) | 0.65 (0.31, 0.98) | Synergistic | 6.19 | –
9 | enfuvirtide | 0.47 (0.40, 0.54) | 0.53 (0.42, 0.65) | 0.60 (0.39, 0.81) | 0.48 (0.37, 0.60) | 0.60 (0.40, 0.80) | 0.75 (0.35, 1.15) | 0.35 (0.29, 0.40) | 0.47 (0.37, 0.57) | 0.63 (0.40, 0.86) | Synergistic | – | 9.00
10 | Cc1cn([C@H]2C=C[C@@H](CO)O2)c(=O)[nH]c1=O [Stavudine, stavudine] | 0.52 (0.40, 0.64) | 0.60 (0.41, 0.80) | 0.75 (0.36, 1.14) | 0.38 (0.31, 0.45) | 0.37 (0.28, 0.46) | 0.40 (0.23, 0.56) | 0.69 (0.51, 0.88) | 0.78 (0.49, 1.07) | 0.92 (0.36, 1.48) | Moderate- | 7.14 | –

Reference: patent US7776863B2, “Methods of treating HIV infection” (priority 2004, dated 2010)
